In PubChem BioAssay (NCI):
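Results reflect a 48-hour exposure of cells in 96-well plates to compound at five concentrations. Definition used: TGI = concentration required for complete inhibition of growth.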

Tests used:
Experiment in all cases: NCI-60 cell line screen, 48 h
NCI-H23 lung = tested on: NCI-H23 lung
NCI-H460 lung = tested on: NCI-H460 lung
OVCAR-5 ovarian = tested on: OVCAR-5 ovarian
NCI/ADR-RES ovarian = tested on: NCI/ADR-RES ovarian
UACC-62 melanoma = tested on: UACC-62 melanoma
SN12C renal = tested on: SN12C renal
SK-MEL-2 melanoma = tested on: SK-MEL-2 melanoma
SK-OV-3 ovarian = tested on: SK-OV-3 ovarian
OVCAR-8 ovarian = tested on: OVCAR-8 ovarian
NCI-H522 lung = tested on: NCI-H522 lung
PC-3 prostate = tested on: PC-3 prostate
HL-60(TB) leukemia = tested on: HL-60(TB) leukemia
MCF7 breast = tested on: MCF7 breast
HOP-62 NSCLC = tested on: HOP-62 NSCLC
UACC-257 melanoma = tested on: UACC-257 melanoma
HOP-92 NSCLC = tested on: HOP-92 NSCLC
K-562 leukemia = tested on: K-562 leukemia
HS 578T breast = tested on: HS 578T breast
ACHN renal = tested on: ACHN renal
RXF 393 renal = tested on: RXF 393 renal
IGROV1 ovarian = tested on: IGROV1 ovarian
U251 CNS = tested on: U251 CNS
COLO 205 colon = tested on: COLO 205 colon
MOLT-4 leukemia = tested on: MOLT-4 leukemia
TK-10 renal = tested on: TK-10 renal
MDA-N = tested on: MDA-N
EKVX NSCLC = tested on: EKVX NSCLC
OVCAR-3 ovarian = tested on: OVCAR-3 ovarian
HCT-15 colon = tested on: HCT-15 colon
UO-31 renal = tested on: UO-31 renal
SF-268 CNS = tested on: SF-268 CNS
HCT-116 colon = tested on: HCT-116 colon
BT-549 breast = tested on: BT-549 breast
CCRF-CEM leukemia = tested on: CCRF-CEM leukemia
SW-620 colon = tested on: SW-620 colon
M14 melanoma = tested on: M14 melanoma
786-0 renal = tested on: 786-0 renal
RPMI-8226 leukemia = tested on: RPMI-8226 leukemia
SNB-19 CNS = tested on: SNB-19 CNS
HCC-2998 colon = tested on: HCC-2998 colon
SF-295 CNS = tested on: SF-295 CNS
MDA-MB-435 = tested on: MDA-MB-435
DU-145 prostate = tested on: DU-145 prostate
SK-MEL-5 melanoma = tested on: SK-MEL-5 melanoma
HT29 colon = tested on: HT29 colon
LOX IMVI melanoma = tested on: LOX IMVI melanoma
SNB-75 CNS = tested on: SNB-75 CNS
NCI-H226 lung = tested on: NCI-H226 lung
MALME-3M melanoma = tested on: MALME-3M melanoma
OVCAR-4 ovarian = tested on: OVCAR-4 ovarian
CAKI-1 renal = tested on: CAKI-1 renal
SK-MEL-28 melanoma = tested on: SK-MEL-28 melanoma
A498 renal = tested on: A498 renal
MDA-MB-231 breast = tested on: MDA-MB-231 breast
KM12 colon = tested on: KM12 colon
SF-539 CNS = tested on: SF-539 CNS
A549 NSCLC = tested on: A549 NSCLC
SR leukemia = tested on: SR leukemia

Measured: TGI

C(=Nc1ccccc1C1SCCCS1)c1ccccc1
not listed: SR leukemia
> 100 µM: all other assays above

CN(C)CCCNC(=O)c1c(-c2cccnc2)cnc2ccccc12
not listed: HS 578T breast | MDA-MB-435 | LOX IMVI melanoma | A498 renal | MDA-MB-231 breast | KM12 colon
> 100 µM: all other assays above
